{"source": "patent US12103926B2", "about": "“Compounds for treating huntington's disease” (PTC THERAPEUTICS, INC., priority 2018, dated 2024)"}
{"tested_on": "Endogenous Huntingtin Protein", "assay": "Endogenous Huntingtin Protein Assay (ELISA-based MSD electrochemiluminescence assay)", "format": "cell-based", "conditions": "MW1 (expanded polyglutamine) or MAB2166 capture antibody; lysates", "procedure": "Compounds of Formula (I) were tested using the Meso Scale Discovery (MSD) Assay provided in International Application No. PCT/US2016/066042, filed on Dec. 11, 2016 and claiming priority to United States Provisional Application U.S. 62/265,652 filed on Dec. 10, 2015, the entire contents of which are incorporated herein by reference.\nThe Endogenous Huntingtin Protein assay used in Example 1 was developed using the ELISA-based MSD electrochemiluminescence assay platform.\nEndogenous Huntingtin Protein Assay\nMeso Scale Discovery (MSD) 96-well or 384-well plates were coated overnight at 4° C. with MW1 (expanded polyglutamine) or MAB2166 monoclonal antibody (for capture) at a concentration of 1 μg/mL in PBS (30 μL per well). Plates were then washed three times with 300 μL wash buffer (0.05% Tween-20 in PBS) and blocked (100 μL blocking buffer; 5% BSA in PBS) for 4-5 hours at room temperature with rotational shaking and then washed three times with wash buffer.\nSamples (25 μL) were transferred to the antibody-coated MSD plate and incubated overnight at 4° C. After removal of the lysates, the plate was washed three times with wash buffer, and 25 μL of #5656S (Cell signaling; rabbit monoclonal) secondary antibody (diluted to 0.25 μg/mL in 0.05% Tween-20 in blocking buffer) was added to each well and incubated with shaking for 1 Hour at room temperature. Following incubation with the secondary antibody, the wells were rinsed with wash buffer after which 25 μL of goat anti-rabbit SULFO TAG secondary detection antibody (required aspect of the MSD system) (diluted to 0.25 μg/mL in 0.05% Tween-20 in blocking buffer) was added to each well and incubated with shaking for 1 hour at room temperature. After rinsing three times with wash buffer, 150 μL of read buffer T with surfactant (MSD) were added to each empty well, and the plate was imaged on a SI 6000 imager (MSD) according to manufacturers' instructions provided for 96- or 384-well plates.", "units": {"IC50": "nM"}}
{"compound": "Cn1cc(-c2ccc(-c3cnc(NC4CC(C)(C)NC(C)(C)C4)cn3)c(O)c2)cn1", "note": "[Cpd 54, 5-(1-methyl-1H-pyrazol-4-yl)-2-{5-[(2,2,6,6-tetramethylpiperidin-4-yl)amino]pyrazin-2-yl}phenol]", "IC50": "< 100"}
{"compound": "CC1(C)CC(Nc2cnc(-c3ccc(-c4ccccn4)cc3O)cn2)CC(C)(C)N1", "note": "[Cpd 48, 5-(pyridin-2-yl)-2-{5-[(2,2,6,6-tetramethylpiperidin-4-yl)amino]pyrazin-2-yl}phenol]", "IC50": "3000 to 9000"}
{"compound": "CC1(C)CC(Nc2cnc(-c3ccc(-c4ccc5nccn5n4)cc3O)cn2)CC(C)(C)N1", "note": "[Cpd 56, 5-(imidazo[1,2-b]pyridazin-6-yl)-2-{5-[(2,2,6,6-tetramethylpiperidin-4-yl)amino]pyrazin-2-yl}phenol]", "IC50": "< 100"}
{"compound": "CN(c1cnc(-c2ccc(-c3cn[nH]c3)c(F)c2)cn1)C1CC(C)(C)NC(C)(C)C1", "note": "[Cpd 16, 5-[3-fluoro-4-(1H-pyrazol-4-yl)phenyl]-N-methyl-N-(2,2,6,6-tetramethylpiperidin-4-yl)pyrazin-2-amine]", "IC50": "500 to 1000"}
{"compound": "CC1(C)CC(Nc2cnc(-c3ccc(-c4cccnc4)cc3O)cn2)CC(C)(C)N1", "note": "[Cpd 45, 5-(pyridin-3-yl)-2-{5-[(2,2,6,6-tetramethylpiperidin-4-yl)amino]pyrazin-2-yl}phenol]", "IC50": "500 to 1000"}
{"compound": "CC1(C)CC(Nc2cnc(-c3ccc(-n4ccnc4)cc3O)cn2)CC(C)(C)N1", "note": "[Cpd 50, 5-(1H-imidazol-1-yl)-2-{5-[(2,2,6,6-tetramethylpiperidin-4-yl)amino]pyrazin-2-yl}phenol]", "IC50": "100 to 500"}
{"compound": "Oc1cc(-c2cn[nH]c2)ccc1-c1cnc(N2CC3CNCC3C2)cn1", "note": "(centres unmarked) [Cpd 6, 2-[5-(hexahydropyrrolo[3,4-c]pyrrol-2(1H)-yl)pyrazin-2-yl]-5-(1H-pyrazol-4-yl)phenol]", "IC50": "1000 to 3000"}
{"compound": "Cn1ccc(-c2ccc(-c3cnc(NC4CC(C)(C)NC(C)(C)C4)cn3)c(O)c2)n1", "note": "[Cpd 55, 5-(1-methyl-1H-pyrazol-3-yl)-2-{5-[(2,2,6,6-tetramethylpiperidin-4-yl)amino]pyrazin-2-yl}phenol]", "IC50": "500 to 1000"}
{"compound": "CN(c1cnc(-c2cc(F)c(-c3cn[nH]c3)c(F)c2)cn1)C1CC(C)(C)NC(C)(C)C1", "note": "[Cpd 17, 5-[3,5-difluoro-4-(1H-pyrazol-4-yl)phenyl]-N-methyl-N-(2,2,6,6-tetramethylpiperidin-4-yl)pyrazin-2-amine]", "IC50": "100 to 500"}
{"compound": "CC1(C)CC(Nc2cnc(-c3ccc(-n4cc(F)cn4)cc3O)cn2)CC(C)(C)N1", "note": "[Cpd 59, 5-(4-fluoro-1H-pyrazol-1-yl)-2-{5-[(2,2,6,6-tetramethylpiperidin-4-yl)amino]pyrazin-2-yl}phenol]", "IC50": "1000 to 3000"}
{"compound": "CC1(C)CC(Nc2cnc(-c3ccc(-c4ccncc4)cc3O)cn2)CC(C)(C)N1", "note": "[Cpd 44, 5-(pyridin-4-yl)-2-{5-[(2,2,6,6-tetramethylpiperidin-4-yl)amino]pyrazin-2-yl} phenol]", "IC50": "100 to 500"}
{"compound": "CN(c1cnc(-c2ccc(-n3nccn3)cc2O)cn1)C1CC(C)(C)NC(C)(C)C1", "note": "[Cpd 61, 2-{5-[methyl(2,2,6,6-tetramethylpiperidin-4-yl)amino]pyrazin-2-yl}-5-(2H-1,2,3-triazol-2-yl)phenol]", "IC50": "100 to 500"}
{"compound": "CN(c1cnc(-c2cc(F)c(-c3cn[nH]c3)cc2O)cn1)C1CC(C)(C)NC(C)(C)C1", "note": "[Cpd 22, 4-fluoro-2-{5-[methyl(2,2,6,6-tetramethylpiperidin-4-yl)amino]pyrazin-2-yl}-5-(1H-pyrazol-4-yl)phenol]", "IC50": "< 100"}
{"compound": "CN(c1cnc(-c2ccc(-n3ccnc3)cc2O)cn1)C1CC(C)(C)NC(C)(C)C1", "note": "[Cpd 5, 5-(1H-imidazol-1-yl)-2-{5-[methyl(2,2,6,6-tetramethylpiperidin-4-yl)amino]pyrazin-2-yl}phenol]", "IC50": "500 to 1000"}
{"compound": "CN(c1cnc(-c2ccc(-c3cn[nH]c3)cc2O)cn1)C1CC2(CCCCC2)NC2(CCCCC2)C1", "note": "(centres unmarked) [Cpd 3, 2-{5-[(7-azadispiro[5.1.5^8.3^6]hexadecan-15-yl)(methyl)amino]pyrazin-2-yl}-5-(1H-pyrazol-4-yl)phenol]", "IC50": "1000 to 3000"}
{"compound": "CC1(C)CC(Nc2cnc(-c3ccc(-c4cn5ccnc5cn4)cc3O)cn2)CC(C)(C)N1", "note": "[Cpd 53, 5-(imidazo[1,2-a]pyrazin-6-yl)-2-{5-[(2,2,6,6-tetramethylpiperidin-4-yl)amino]pyrazin-2-yl}phenol]", "IC50": "100 to 500"}
{"compound": "CN(c1cnc(-c2ccc(-c3cn[nH]c3)cc2O)cn1)C1CCNCC1", "note": "[Cpd 20, 2-{5-[methyl(piperidin-4-yl)amino]pyrazin-2-yl}-5-(1H-pyrazol-4-yl)phenol]", "IC50": "500 to 1000"}
{"compound": "[2H]C([2H])([2H])n1cc(-c2ccc(-c3cnc(N4CCC(NC(C)(C)C)C4)cn3)c(O)c2)cn1", "note": "(centres unmarked) [Cpd 60, 2-{5-[3-(tert-butylamino)pyrrolidin-1-yl]pyrazin-2-yl}-5-[1-(^2H3)methyl-1H-pyrazol-4-yl]phenol]", "IC50": "< 100"}
{"compound": "CN(c1cnc(-c2ccc(-c3cnn(C)c3)cc2O)cn1)C1CC(C)(C)NC(C)(C)C1", "note": "[Cpd 27, 5-(1-methyl-1H-pyrazol-4-yl)-2-{5-[methyl(2,2,6,6-tetramethylpiperidin-4-yl)amino]pyrazin-2-yl} phenol]", "IC50": "100 to 500"}
{"compound": "CC(C)(C)NC1CCN(c2cnc(-c3ccc(-c4cn[nH]c4)cc3O)cn2)C1", "note": "(centres unmarked) [Cpd 52, 2-{5-[3-(tert-butylamino)pyrrolidin-1-yl]pyrazin-2-yl}-5-(1H-pyrazol-4-yl)phenol]", "IC50": "< 100"}
